Laboratory results as given in patent US20080269121A1, “Methods and Compositions Involving A1c Subunit of L-Type Calcium Channels in Smooth Muscle Cells” (The Board of Regents of the University of Texas System, priority 2005, published 2008).
“Also recorded” adds a separate entry of the source. Read-outs that look alike come from different tables or passages of the source.

Experiments:
[1] = test system: human colonic circular muscle strips; experiment: Muscle bath: contractile response of human colonic circular muscle strips; type: cell-based
Protocol: (§1) Muscle bath experiments. Pure circular muscle strips (2 mm×10 mm) are prepared from resected human colon segments. The strips are mounted in 5 ml baths filled with carbonated Krebs solution (in mM: 118 NaCl, 4.7 KCl, 2.5 CaCl2, 1 NaH2PO4, 1-2 MgCl2, 11 D-glucose, and 25 NaHCO3) at 37° C. (Siebenlist et al., 1994; Barnes and Karin, 1997). The muscle strips are equilibrated for 1 h at 1 g tension and then stretched until maximal response is obtained to 10^−4 m ACh. The bathing solution is replaced every 15 min. Contractions are measured by force transducers and analyzed by DATAQ (Akron, Ohio) software.
The protocol for transfection of sense and antisense oligonucleotides in freshly obtained muscle strips was similar to that in HCCSMC. The circular muscle layer was isolated from the fall thickness human colon, and sliced into 2 mm×10 mm muscle strips. The strips were incubated in RPMI 1640 without serum. The sense and antisense oligonucleotides (10 μM) were added into the medium for 24 h before incubation with 20 ng/mL TNFα for 24 h.

[2] = test system: α1C1b promoter; experiment: α1C1b promoter luciferase reporter activity in HCCSMC; type: cell-based, human; details: for α1C1b promoter reporter (luciferase) activity: substance by itself; for effect on enhancement of α1C1b promoter activity by VIP: with VIP
Protocol: Transient cell transfections and luciferase activity. FuGENE 6 (Roche, Mannheim, Germany) is used to transfect luciferase-expressing pGL2 constructs in HCCSMC. The cells in passage 4 are seeded into 12-well plates (Costar, Acton, Mass.) and grown to 70% to 80% confluency. Transfections are carried out by incubation of cells in each well with 1.5 μl of FuGENE 6, 0.5 μg of pGL2 construct, and 0.125 μg of pSEAP2 Control Vector (BD Biosciences Clontech, Palo Alto, Calif.) for 24 h as per manufacturer's instructions. The pSEAP2 Control Vector is co-transfected for normalization of data. The transfected cells were treated with stimulus or medium control and harvested after 24 hours. Twenty μl of the supernatant of the cell lysates are taken for the measurement of luciferase activity by a luminometer (Promega, Madison, Wis.). The SEAP activity is measured with a Clontech SEAP detection kit by following the manufacturer's instructions.
Promoter constructs, 5′-deletions, and site-directed mutagenesis. The promoter constructs of hα1c1b are prepared by PCR amplification of human genomic DNA (Roche, Indianapolis, Ind.) and digested partially with Hind III (Promega, Madison, Wis.) using the FailSafe PCR kit (Epicentre, Madison, Wis.). The PCR product is subcloned into pDrive Cloning Vector with the PCR Cloning^plus kit (Qiagen, Valencia, Calif.) and SURE 2 supercompetent cells (Stratagene, La Jolla, Calif.) and subsequently transferred to the luciferase expression plasmid pGL2-Basic Vector (Promega, Madison, Wis.). The deletion constructs are made using the full length promoter construct as a template in PCR reactions. The same methods and kits are used to subclone the sequenced PCR products into the pDrive and pGL2 vector. The site-directed mutagenesis is carried out using QuikChange® II XL Site-Directed Mutagenesis Kit from Stratagene (La Jolla, Calif.), as per manufacturer's instructions.

[3] = test system: CRE1 and CRE2; experiment: Oligonucleotide agarose conjugate pull-down of CREB; type: cell-based, human; details: with VIP, FIG. 10
[4] = test system: p65 subunit; experiment: Nuclear abundance and binding of NF-κB p65 in HCCSMC; type: cell-based, human
Protocol: Cytoplasmic and nuclear protein, and RNA extraction: Cytoplasmic and nuclear proteins were prepared as described earlier by Shi et al. Briefly, the cells were washed twice with phosphate-buffered saline solution and then with buffer A (in mM: 10 HEPES, 1.5 MgCl2, 10 KCl, 0.5 dithiothreitol, 0.5 phenylmethylsulfrenyl fluoride [PMSF]; 10 ng/mL leupeptin, and 10 ng/mL aprotinin). The cells were resuspended in 25 μL of buffer A containing 0.25% NP-40 and incubated at 4° C. for 10 minutes. After centrifugation at 12,000 g for 10 minutes, the supernatant was collected as cytoplasmic extract. The nuclear pellet was resuspended in 20 μL of buffer C (in mM: 20 HEPES, […], 1.5 MgCl2, 0.2 ethylenediaimetetraacetic acid (EDTA), 0.5 DTT, 0.5 PMSF; 24% glycerol, 10 ng/mL leupeptin, and 10 ng/mL aprotinin) and incubated on ice with frequent vortexing for 15 minutes. The samples were centrifuged at 14,000 g for 10 minutes, and the supernatant (nuclear extract) was transferred to a fresh tube with 5 volumes of buffer D (in mM: 20 HEPES, 0.2 EDTA, 50 KCl, 0.5 DTT, 0.5 PMSF; 20% glycerol, 10 ng/mL leupeptin, and 10 ng/mL aprotinin). The protein concentration was determined by using the Bio-Rad assay kit (Bio-Rad Laboratories, Hercules, Calif.).
Electrophoretic mobility shift assay. […]

[5] = test system: α1C subunit of L-type Ca^2+ channels; experiment: Q-PCR of α1C mRNA expression in HCCSMC; type: cell-based, human; details: for induction of α1C mRNA expression: HCCSMC
Text: (§2) Primary cultures of HCCSMC: Human tissue was obtained from the descending and sigmoid colons with approval of the University of Texas Medical Branch Institutional Review Board from disease free margins of resected segments from patients undergoing surgery for colon cancer. The circular muscle layer was separated from the taenia coli and lamina propria with a tissue slicer. The circular muscle layer was collected in ice-cold HEPES buffer (in mM: 120 NaCl, 2.6 KH2S04, 4 KCl, 2 CaCl2, 0.6 MgCl2, 25 HEPES, 14 glucose and 2.1% essential amino acid mixture, pH 7.4). Two successive digestions with papain and collagenase, as described previously by Shi and Sarna, were used to disperse smooth muscle cells. The cells were cultured in RPMI 1640 (Gibco/Invitrogen, Carlsbad, Calif.) supplemented with 10% fetal bovine serum in the presence of 100 units/mL of penicillin G, 100 μg/mL of streptomycin sulfate and 0.25 μg/mL of amphoteracin B. The culture medium was changed every three days. Cells in passages 3 to 5 were used in all experiments. All cells were cultured in serum-free medium for at least 15 h prior to experiments to eliminate the possible effects of growth factors. […] The cultures of colonic smooth muscle cells retain their contractile phenotype. Each experiment used cells or muscle strips from at least three different subjects.
Total RNA was extracted from cells using the Qiagen RNeasy kit (Qiagen, Valencia, Calif.) by following the manufacturer's protocol. The cDNAs were made using the Superscript First-Strand Synthesis System (Invitrogen, Carlsbad, Calif.).
Quantitive real-time-polymerase chain reaction (Q-PCR). Q-PCR assay is employed to determine gene expression using TaqMan technology on Applied Biosystems 7000 sequence detection system (UTMB Real-time PCR Core Facility). Applied Biosystems Assays-By-Design containing a 20× assay mix of primers and TaqMan MGB probes (FAMTM dye-labeled) are used for a target gene and the endogenous control, human 18s RNA. These assays were designed using primers that span exon-exon junctions so as not to detect genomic DNA. All primer and probe sequences were searched against the Celera data base to confirm specificity. The primer and probe sequences used were as follows: human Cav1.2 channel oα1C intermediate form (Cav1.2b) probe spanning exon 1b and exon 2, […] (SEQ ID NO:4): forward primer, […] (SEQ ID NO:5): reverse primer, […] (SEQ ID NO:6). Human Cav1.2 channel α1C long form (Cav1.2a) probe spanning exon 1a and exon 2: […] (SEQ ID NO:7): forward primer, […] (SEQ ID NO:8): reverse primer. […] (SEQ ID NO:6).

[6] = test system: Cav1.2a; details: neonatal rat ventricular myocytes; cited from earlier work
[7] = test system: α1C subunit of L-type Ca^2+ channels; experiment: α1C protein expression (Western immunoblotting); type: cell-based, human; details: muscle strip tissue, FIG. 14 top
Text: as §2
Western immunoblotting. Each lane is loaded with 10 μg protein and size-separated on a 10% SDS polyacrylamide gel. After blotting, the nitrocellulose membranes are blocked with 10% non-fat dried milk at 4° C. overnight. The blots are incubated with appropriate dilution of the antibody at 4° C. overnight and appropriate dilution of designated secondary antibody at room temperature for 1 h. β-actin is used as internal control.

[8] = test system: TNBS-induced inflammation; type: in vivo, rat; details: for suppression of contractile response, with sub-threshold dose of TNBS: osmotic pump plus TNBS 30 mg/kg, compared with TNBS 130 mg/kg
Protocol: as §1
(§3) Vertebrate Animals. Sprague-Dawley rats were used. For tissue harvesting, the rats were anesthetized with 5% isoflurame in 100% oxygen for 5 to 7 minutes followed by i.p. injection of 50 mg/kg ketamine.
(§4) Osmotic pumps were implanted under anesthesia as discussed above. Lateral surface of left back were shaven and cleaned with betadine. A 2 cm incision was made in the skin and subcutaneous facia and muscle separated. The micro-osmotic pump were implanted intramuscularly and the incision was closed.
Colonic inflammation was induced by intraluminal injection of 30 mg/kg or 130-mg/kg trinitrobenzene sulfonic acid (TNBS) under anesthesia, as described above.

[9] = test system: rat middle colon muscle strips; experiment: Osmotic pump administration in rats, contractile response of colon muscle strips; type: in vivo; details: systemic administration by osmotic pump for 3 days
Protocol: as §1, §3, §4

Compound: TNFα
- contractile response of circular muscle strips to ACh ([1]; strips incubated 24 h, organ bath): suppresses their contractile response to ACh; also recorded: suppressed the contractile response to ACh; also recorded: suppression of contractility
- α1C1b promoter reporter (luciferase) activity [2]: reduced luciferase activity; also recorded: suppressed it
- effect on CREB binding after VIP treatment [3]: abrogated; also recorded: reduces the binding after VIP treatment
- nuclear abundance and binding of p65 [4]: enhanced the nuclear abundance and binding of p65

Compound: Oc1ccc(-c2nc(-c3ccncc3)c(-c3ccc(F)cc3)[nH]2)cc1 [SB202190]
- α1C1b promoter reporter (luciferase) activity [2]: little effect
- effect on enhancement of α1C1b promoter activity by VIP [2]: somewhat blunt the enhancement

Compound: NC[C@H](O)c1ccc(O)c(O)c1 [norepinephrine]
- induction of α1C mRNA expression [5]: induced the expression of α1C mRNA

Compound: COc1cccc(-c2cc(=O)c3ccccc3o2)c1N [PD98059]
- α1C1b promoter reporter (luciferase) activity [2]: little effect
- effect on enhancement of α1C1b promoter activity by VIP [2]: little effect

Compound: CC(C)NCC(O)c1ccc(O)c(O)c1 (centres unmarked) [isoproterenol]
- Cav1.2a mRNA [6]: transient increase in Cav1.2a mRNA
- increase in peak current density [6]: about 40%

Compound: pituitary adenylate cyclase-activating peptide [PACAP]
- induction of α1C mRNA expression [5]: induced expression
- effect on TNFα suppression of α1C protein [7]: minimized
- effect on TNFα suppression of contractile response to ACh ([1]; muscle strips, treatment before/with TNFα): significantly reduces the suppression
- effect on suppression of α1C1b promoter activity by TNFα ([2]; with TNFα): significantly blocked this reduction
- effect on suppression of contractility due to TNBS-induced inflammation ([8]; intact rat model, treatment through osmotic pumps, expected): partially inhibit the suppression of contractility

Compound: (p-chloro-D-Phe^6, Leu^17)-VIP
- contractile response of rat colon muscle strips to ACh [9]: suppressed the contractile response
- suppression of contractile response, with sub-threshold dose of TNBS ([8]; listed as VIP receptor antagonist): increased the suppression of contractile response
- suppression of contractile response, with sub-threshold dose of TNBS ([8]; listed as VIP/PACAP receptor antagonist): enhanced the suppression of contractility
- contractile response to ACh, antagonist by itself ([8]; osmotic pump, no TNBS, FIG. 15): suppressed the contractile response
- diarrhea ([8]; rat, in vivo): did not develop diarrhea

Compound: O=S(=O)(NCCNC/C=C/c1ccc(Br)cc1)c1cccc2cnccc12 [H-89]
- effect on α1C mRNA on its own ([5]; FIG. 4): no effect on its own
- effect on VIP enhancement of α1C mRNA ([5]; FIG. 4, with VIP): partially inhibited the effect of VIP
